Data: patent publication US8022052B2, “Inhibition of PPAR gamma expression by specific osteogenic oxysterols” (The Regents of the University of California, priority 2006, dated 2011)
Entries after “also recorded” stand apart in the source; their conditions may differ.

How the values were obtained:
[1] = system: M2-10B4 (M2) murine pluripotent bone MSC line; test: Tro-induced adipocyte formation in M2 cells, Oil red O staining; assay type: cell-based, mouse
Experimental: (§1) M2 mouse MSCs were purchased from American Type Culture Collection (ATCC, Rockville, Md., USA). […] Cell culture was performed in 24- and 6-well plates for adipogenic differentiation and gene expression studies, respectively, and treatment with test agents was done in growth medium.
Oil red O staining for detection of adipocytes was performed as previously described. […] The number of adipocytes was quantitated by counting Oil red O-positive cells in five separate fields per well, in three wells per experimental condition. The results are reported as the mean of triplicate determination ±SD.
(§2) Adipocyte formation was examined by Oil red O staining. […] PPARγ expression was assessed by RT-qPCR after treating M2 cells with Tro in the presence or absence of 20S. […] M2 cells at confluence were treated with control vehicle, 10 μM Tro, or 5 μM 20S, alone or in combination for 24 hours (FIG. 2A), 48 hours (FIG. 2B), and 96 hours (FIG. 2C). PPARγ mRNA expression was measured by quantitative real-time PCR.
(§3) After 10 days, adipocyte formation was measured by Oil red O staining. The number of adipocytes was determined by counting Oil red O-positive cells in five separate fields per well, in three wells per experimental condition. […] After 48 h, PPARγ mRNA expression was measured by quantitative real-time PCR. […] Luciferase activity was measured after 24 h and normalized for transfection efficiency using the Renilla luciferase activity.
Synthetic oxysterol compounds were studied for inhibition of adipogenesis and PPAR expression. […] After 10 days of treatment, cells were stained with Oil-red-O to detect adipocytes, and the number of positively stained cells was determined using light microscopy. Data from a representative experiment are reported as the mean of triplicate determination (average of five fields per well, 3 wells per experimental condition) ±SD.

PPARγ [2] = test: PPARγ mRNA expression in M2 cells by RT-qPCR; assay type: cell-based, mouse
Experimental: as §1
(§4) Total RNA was extracted with the RNA isolation kit from Stratagene (La Jolla, Calif., USA) according to the manufacturer's instructions. RNA was DNase-treated using DNA-free kit from Ambion (Austin, Tex., USA). Three micrograms of RNA was reverse-transcribed using reverse transcriptase from Stratagene to make single-stranded cDNA. The cDNA was mixed with Qi SYBR Green Supermix (Bio-Rad) for quantitative RT-PCR assay using a Bio-Rad I-cycler IQ quantitative thermocycler. All PCR samples were prepared in triplicate wells of a 96-well plate. After 40 cycles of PCR, melt curves were examined to ensure primer specificity. Fold changes in gene expression were calculated using the ΔΔCt method. […] Primers used are as follows: PPARγ2 (5′-[…]-3′ and 5′-[…]-3′), C/EBPα (5′-[…]-3′ and 5′-[…]-3′), ap2 (5′-[…]-3′ and 5′-[…]-3′), LPL (5′-[…]-3′ and 5′-[…]-[…]), GATA2 (5′-[…]-3′ and 5′-[…]-3′), GATA3 (5′-[…]-3′ and 5′-[…]-3′), GILZ (5′-[…]-3′ and 5′-[…]-3′), and pref-1 (5′-[…]-3′ and 5′-[…]-3′).
as §2, §3
After 48 hours of treatment, RNA was extracted from cells and analyzed for PPARγ expression by Q-RT-PCR. Data from a representative experiment, normalized to GAPDH expression, are reported as the mean of triplicate determinations ±SD.

C/EBPα = C/EBPα mRNA expression in M2 cells by quantitative real-time PCR; assay type: cell-based, mouse; settings: 10 μM Tro, 5 μM 20S, 24, 48, 96 hours
Experimental: . M2 cells at confluence were treated with control vehicle, 10 μM Tro, or 5 μM 20S, alone or in combination for 24 (FIG. 3A), 48 (FIG. 3B), and 96 (FIG. 3C) hours. C/EBPα mRNA expression was measured by quantitative real-time PCR. Fold changes in gene expression relative to the control were calculated using the ΔΔCt method and reported as the mean of triplicate determination ±SD (p<0.0001 for Tro vs. control and p<0.001 for Tro+20S vs. control at 24 hours (FIG. 3A); p<0.0001 for Tro vs. control and p<0.001 for Tro+20S vs. control at 48 hours (FIG. 3B); p<0.0001 for Tro or Tro+20S vs. control at 96 hours (FIG. 3C).

aP2 = aP2 mRNA expression in M2 cells by quantitative real-time PCR; assay type: cell-based, mouse
Experimental: . M2 cells at confluence were treated with control vehicle, 10 μM Tro, or 5 μM 20S, alone or in combination for 24 hours (FIG. 4A), 48 hours (FIG. 4B), and 96 hours (FIG. 4C). aP2 mRNA expression was measured by quantitative real-time PCR. Fold changes in gene expression relative to the control were calculated using the ΔΔCt method and reported as the mean of triplicate determination ±SD (p<0.0001 for Tro or Tro+20S vs. control or 20S and p<0.01 for Tro vs. Tro+20S at 24 hours (FIG. 4A); p<0.0001 for Tro or Tro+20S vs. control or 20S and for Tro vs. Tro+20S at 48 hours (FIG. 4B); p<0.0001 for Tro vs. control, 20S, or Tro+20S and p<0.001 for Tro+20S vs. control or 20S at 96 hours (FIG. 4C)).

PPARγ [3] = test: PPRE luciferase reporter assay (PPARγ transcriptional activity) in M2 cells; assay type: cell-based, mouse
Description: (§5) M2 cells at 70% confluency in a 24-well plate were transiently transfected with: a plasmid containing three tandem repeats of the PPAR response element (PPRE) upstream of the basic thymidine kinase promoter (p3xPPRE-TK-Luciferase), a control pTK-Luciferase plasmid devoid of PPRE, a CMX-PPARγ expression plasmid (all kind gifts of Dr Peter Tontonoz), a CMX-RXRα expression plasmid (kind gift of Dr Sotirios Tetradis), and a pTK-Renilla-Luciferase plasmid (Promega, Madison, Wis., USA) using Fugene 6 Transfection Reagents from Roche (Indianapolis, Ind., USA). Luciferase activity assay was performed using Dual-Luciferase Reporter 1000 Assay System (Promega, Madison, Wis., USA). Luciferase reporter activity was normalized to Renilla Luciferase activity. […] For GATA reporter assays, M2 cells were transfected with a GATA Luciferase reporter vector or a control reporter vector (both from Panomics, Fremont, Calif., USA), and pTK-Renilla-Luciferase plasmid.
M2 cells were transiently transfected with a reporter construct containing three tandem repeats of a PPRE (pTK-3×PPRE-Luciferase) or the control plasmid (pTK-Luciferase). Cells were treated with 10 μM Tro or control vehicle, and luciferase activity was measured after 24 and 48 h. […] Because PPARγ and retinoid X receptor (RXR) form obligatory heterodimers, we studied whether 20S would have an effect when both PPARγ and RXRα were overexpressed. […] Luciferase activity was measured after 24 hours and normalized for transfection efficiency using the Renilla luciferase activity. […] Luciferase activity was normalized for transfection efficiency using the Renilla luciferase activity. […] Luciferase activity was measured after 24 hours and normalized to the Renilla luciferase activity.

murine PPARγ2 promoter = test: PPARγ2 promoter luciferase activity induced by C/EBPα overexpression in M2 cells; assay type: cell-based, mouse; settings: p19-PPARγ2 with MSV-C/EBPα plasmid, 24 h
Experimental: For PPARγ promoter activity assays, M2 cells were transiently transfected with a murine PPARγ2 promoter construct luciferase plasmid (p19-PPARγ2; (kind gift of Dr Steven McKnight), along with MSV-C/EBPα overexpression plasmid (kind gift of Dr. Sophia Tsai) and pTK-Renilla-Luciferase plasmid. Luciferase activity was measured after 24 h and normalized for transfection efficiency using the Renilla Luciferase activity.
To determine if 20S and Shh inhibit PPARγ expression by acting directly on its promoter, we focused on C/EBPα regulated PPARγ promoter activity.
as §3

[4] = system: GATA2, GATA3, Gilz, and pref-1; test: GATA2, GATA3, Gilz and pref-1 expression in M2 cells by RT-qPCR; assay type: cell-based, mouse; settings: 24 and 48 h, data not shown
Description: as §4

GATA = GATA luciferase reporter in M2 cells; assay type: cell-based, mouse; settings: 24 and 48 h, data not shown
Description: as §5

LXRs = test: LXR activation in M2 cells; assay type: cell-based, mouse; settings: data not shown
[5] = system: M2-10B4 (M2) murine pluripotent bone MSC line; settings: cited from earlier work
LPL = settings: cyclopamine, data not shown
Description: as §4

With `CC(C)CCC[C@](C)(O)[C@H]1CC[C@H]2[C@@H]3CC=C4C[C@@H](O)CC[C@]4(C)[C@H]3CC[C@@]21C` [Oxy 20S, 20(S)-hydroxycholesterol] the “inhibition of Tro-induced adipocyte formation” value ([1]; M2 cells, 10 μM Tro, oxysterol 5 μM, 10 days) was “completely inhibited; also recorded: significantly inhibited”, the “inhibition of Tro-induced PPARγ mRNA expression” value (PPARγ [2]; M2 cells, 10 μM Tro, oxysterol 5 μM, 24, 48, 96 h (20S), 48 h (Oxy13)) was “completely inhibited; also recorded: almost completely blocked; also recorded: specifically inhibited; also recorded: inhibits” and the “effect of 20S on Tro-induced C/EBPα mRNA expression” value (C/EBPα) was “did not inhibit”. The “effect of 20S on Tro-induced aP2 mRNA expression” value (aP2; 10 μM Tro, 5 μM 20S, 24, 48, 96 hours) was “inhibited”, the “effect of 20S on Tro-induced PPRE reporter activity (PPARγ transcriptional activity)” value (PPARγ [3]; M2 cells overexpressing PPARγ) was “did not inhibit but rather enhanced; also recorded: not inhibited but rather enhanced; also recorded: does not inhibit” and the “effect of 20S on PPARγ-RXRα induced PPRE reporter activity” value (PPARγ [3]; M2 cells overexpressing PPARγ and RXRα, 24 hours) was “did not inhibit; also recorded: enhanced”. For the same compound, the “effect of 20S on Tro-induced PPRE reporter activity” value (PPARγ [3]; M2 cells without PPARγ overexpression, 24 hours) was “did not inhibit Tro-induced PPRE reporter activity, but instead caused a small but significant increase”, the “inhibition of PPARγ2 promoter activity induced by C/EBPα overexpression” value (murine PPARγ2 promoter) was “greatly inhibited; also recorded: inhibit; also recorded: significantly inhibited” and the “GATA2/GATA3, Gilz, and pref-1 gene expression” value [4] was “does not increase”. For the same compound, the GATA transcriptional activity (GATA) was “does not increase”, the “activation of LXRs” value (LXRs) was “activation” and the “adipogenic differentiation of M2 cells (previously reported)” value [5] was “inhibit”.

For `CC1=C2C[C@H]3[C@@H](CC=C4C[C@@H](O)CC[C@@]43C)[C@@H]2CC[C@]12O[C@@H]1C[C@H](C)CN[C@H]1[C@H]2C` [cyclopamine], the “reversal of the inhibitory effects of 20S on Tro-induced adipocyte formation” value [1] was 70%, the “reversal of the inhibitory effects of Shh on Tro-induced adipocyte formation” value [1] was 100% and the “reversal of the anti-adipogenic effects of 20S (in words)” value ([1]; 4 μM cyclopamine 2-h pretreatment, 10 μM Tro, 5 μM 20S, 10 days) was “reversed; also recorded: blocks; also recorded: did not completely reverse”. For the same compound, the “reversal of the anti-adipogenic effects of Shh (in words)” value ([1]; cyclopamine 2-h pretreatment, 10 μM Tro, 200 ng/mL Shh, 10 days) was “completely reversed; also recorded: blocks”, the “additional effect on adipocyte formation of increasing the dose of cyclopamine” value ([1]; cyclopamine from 4 to 8 μM, Tro+20S, data not shown) was “did not have any additional effect” and the “reversal of the inhibitory effect of 20S on Tro-induced PPARγ mRNA expression (in words)” value (PPARγ [2]) was “fully reversed; also recorded: completely abolished; also recorded: blocks; also recorded: completely blocked”. For the same compound, the “reversal of the inhibitory effect of Shh on Tro-induced PPARγ mRNA expression (in words)” value (PPARγ [2]) was “fully reversed; also recorded: completely abolished; also recorded: blocks; also recorded: completely reversed; also recorded: completely blocked”, the “reversal of the inhibitory effects of 20S on aP2 expression” value (aP2; cyclopamine, data not shown) was “reversed” and the “reversal of the inhibitory effects of 20S on LPL expression” value (LPL) was “reversed”.
